Assay results: patent publication US20240199601A1, “QUINONE COMPOUND AND PHARMACEUTICAL USE THEREOF” (NANJING SHUPENG LIFE SCIENCE CO., LTD., priority 2021, published 2024)

Experiments:
[1] = test system: inflammatory pain model with AMPK inhibited; test: Long-acting analgesic mechanism: CFA pain model with AMPK inhibitor compound c; type: in vivo, SD rats; settings: compound c (Dorsomorphin) into caudal vein half an hour before oral SP3101 20 mg/kg, rats
Experimental: Similar to the modeling method in Activity Test 1, 100 uL of a complete Freund's adjuvant was injected into the soles of the left feet of SD rats with a body weight of 200-250 g, mechanical pain thresholds of the left feet were detected by an ALMEMO2490 data collector 24 hours later, and the rats with a pain threshold of greater than 15 were abandoned. On the second day of modeling, 100 μL of a compound c as an AMPK inhibitor (Dorsomorphin, CAS No.866405-64-3, CC, 0.4 mg/ml) was injected into the caudal vein of each rat, the rats were orally administered with SP3101 (20 mg/kg) half an hour later, and the pain thresholds were detected after 1.5 hours and 24 hours, respectively.

AMPK [2] = test: AMPK phosphorylation level in a variety of cells; type: cell-based; settings: 100 nM
[3] = test system: paclitaxel-induced hyperalgesia; test: Paclitaxel chemotherapy pain model; type: in vivo, B6 mice; settings: 40 mg/kg by gavage once a day for 15 days, paclitaxel 4 mg/kg i.p. x4, mice, Von Frey 0.07 g and 0.4 g
Source text: A total of 30 8- to 10-week-old male B6 mice were selected and allowed to adapt to the environment for three days.
On DAY 0, mechanical pain thresholds were detected by using Von Frey fibrils, the mice with abnormal pain thresholds were abandoned, and the basic pain thresholds were basically about 0.6-1.0 g. According to the basic pain thresholds, a pain threshold of 0.07 g was used in this test, and a pain threshold of 0.4 g was used in subsequent detection. Behaviors such as foot lifting and foot licking were identified as positive responses. […] The mice were randomly divided into the following groups: (1) a model control group (PC, n=10), (2) an SP3101 group administered at a dose of 40 mg/kg (n=10) by gavage and (3) a blank control group (NC). The mice in the model control group were administrated with double distilled water by gavage, the mice in the model control group and the SP3101 group were administrated with paclitaxel (4 mg/kg) by intraperitoneal injection 0.5 hour later, and the mice in the blank control group were administrated with normal saline by intraperitoneal injection. […] The first modeling day was determined as DAY 0. […] On DAY 0, 3, 7, 9, 14, 18 and 21, the mechanical pain thresholds were detected.

[4] = test system: inflammatory pain model (complete Freund's adjuvant); test: Inflammatory pain model (complete Freund's adjuvant), mechanical pain threshold; type: in vivo, SD rats; settings: rats
Experimental: 4 SD rats with a body weight of 200-250 g were used as a blank control (NC), and normal saline was injected into the soles of the left feet of the rats. Inflammatory pain models of 18 rats were constructed, that is to say, 100 μL of a complete Freund's adjuvant was injected into soles of the left feet of the rats, mechanical pain thresholds of the left feet were detected by an ALMEMO2490 data collector 24 hours later, 2 rats with a pain threshold of greater than 15 were abandoned, and the other 16 rats were randomly divided into 4 groups with 4 rats in each group and then administered with water as a positive control (PC), SP3101 (20 mg/kg), PQQ (20 mg/kg) and ibuprofen (25 mg/kg/day) by gavage, respectively.

[5] = test system: oxaliplatin-induced hyperalgesia; test: Oxaliplatin chemotherapy pain model; type: in vivo, C57LB6 mice; settings: 40 mg/kg by gavage, oxaliplatin 3 mg/kg i.p., mice, Von Frey
Experimental: A total of 30 10-week-old wild male C57LB6 mice were selected.
On DAY 0, the mice were allowed to adapt to the environment for 7 days first, basic mechanical pain thresholds were detected and were basically about 1-1.4 g, and a total of 30 mice were used in this test without abnormal mice.
On DAYS 1-5, the mice were randomly divided into 3 groups including a blank control group (n=10), a model control group (n=10) and an SP3101 group (40 mg/kg, n=10). The mice in the SP3101 group were administrated with an SP3101 aqueous solution by gavage, the mice in the model control group were administrated with double distilled water by gavage, and the mice in the model control group and the SP3101 group were administrated with oxaliplatin (3 mg/kg) by intraperitoneal injection 0.5 hour later. The same operations were continuously performed for 5 days. On DAY 5, the pain thresholds were detected by using Von Frey fibrils.
On DAYS 6-10, the mice were only administered with SP3101 and water by gavage.
On DAYS 11-15, the operations on DAYS 1-5 were repeated, and on DAY 11, the pain thresholds were detected by using Von Frey fibrils.
On DAYS 16-20, the mice were only observed, and on DAY 16 and DAY 20, the mechanical pain thresholds were detected.

AMPK [6] = test: AMPK agonist test in RAW264.7 cells (protein hybridization, p-AMPK); type: cell-based; settings: 0.1 μM, 24 hours
Experimental: RAW264.7 cells were inoculated into two six-well plates and enabled to grow to a density of about 90%, and SP3101 and SP3102 of different concentrations were added, respectively. 24 hours later, the cells were lysed with a radio immunoprecipitation assay (RIPA) lysis buffer, and the expression of proteins was detected by protein hybridization.
Phosphorylation of serine at the 127th site of AMPK is used as an activation marker. […] It can be seen that the compounds, represented by the SP3101 and the SP3102, of the present invention are used as an AMPK agonist.

For `O=C1C(=O)c2nc(O)cc(C(=O)O)c2-c2[nH]ccc21` [SP3101, 4,5-dioxo-4,5-dihydro-1H-pyrrolo[2,3-f]quinone-7-hydroxy-9-carboxylic acid], the “long-acting (24 hours) analgesic effect while AMPK is inhibited” value [1] was “eliminated”, the “short-acting (1.5 hours) analgesic effect while AMPK is inhibited” value [1] was “not affected” and the “phosphorylation level of the AMPK” value (AMPK [2]) was “significantly up-regulate”. The “alleviation of paclitaxel-induced hyperalgesia” value [3] was “obvious effect of alleviating the paclitaxel-induced hyperalgesia”, the overall analgesic profile ([4]; CFA inflammatory pain model, oral) was “rapid analgesic effect and a long-acting analgesic effect” and the “analgesic effect on day 5-7” value ([4]; single oral 20 mg/kg, compared with model group (PC)) was “the analgesic effect is reduced”. The “duration of the analgesic effect” value ([4]; single oral dose (SP3101 20 mg/kg)) was 72 h, the “analgesic effect 1.5 hours after oral administration” value ([4]; single oral dose (SP3101 20 mg/kg), mechanical pain threshold vs model group) was “obvious analgesic effect” and the “prevention of oxaliplatin-induced hyperalgesia” value [5] was “obviously prevent oxaliplatin-induced hyperalgesia”. For the same molecule, the “activation of AMPK (expression of p-AMPK)” value (AMPK [6]) was “obviously activate the AMPK”.
